Measurements taken from patent US8962616B2, “Heterocyclic substituted hexahydropyrano[3,4-d][1,3]thiazin-2-amine compounds” (Pfizer Inc., priority 2012, dated 2015).

Legend:
[1] = system: H4 human neuroglioma cells over-expressing the wild-type human APP695; test: sAPPβ Whole-Cell Assay (in vitro sAPPb assay, ELISA); assay type: cell-based; details: 18 hours, geometric mean of 2-7 determinations (values marked b: single determination)
Experimental: Whole Cell-Free Assay (In Vitro sAPPb Assay):
H4 human neuroglioma cells over-expressing the wild-type human APP695 are treated for 18 hours with compound in a final concentration 1% DMSO. sAPPβ levels are measured using TMB-ELISA with capture APP N-terminal antibody (Affinity BioReagents, OMA1-03132), wild-type sAPPβ specific reporter p192 (Elan), and tertiary anti rabbit-HRP (GE Healthcare).

BACE1 enzyme = BACE1 enzyme (Homo sapiens (Human), UniProt P56817); test: BACE1 Cell-Free Assay (fluorescence polarization, synthetic APP substrate); assay type: biochemical; details: geometric mean of 2-7 determinations (values marked b: single determination)
Description: This assay measures the inhibition of the beta-secretase enzyme as it cleaves a non-native peptide.
A synthetic APP substrate that can be cleaved by beta-secretase having N-terminal biotin and made fluorescent by the covalent attachment of Oregon Green at the Cys residue is used to assay beta-secretase activity in the presence or absence of the inhibitory compounds. […] The BACE1 enzyme is affinity purified material from conditioned media of CHO-K1 cells that have been transfected with a soluble BACE construct (BACE1deltaTM96His). Compounds are incubated in a ½ log dose response curve from a top concentration of 100 μM with BACE1 enzyme and the biotinylated fluorescent peptide in 384-well black plates (Thermo Scientific #4318). BACE1 is at a final concentration of 0.1 nM with a final concentration of peptide substrate of 150 nM in a reaction volume of 30 μL assay buffer (100 mM sodium acetate, pH 4.5 (brought to pH with acetic acid), and 0.001% Tween-20). Plates are covered and incubated for 3 hours at 37° C. The reaction is stopped with the addition of 30 μL of 1.5 μM Streptavidin (Pierce, #21125). After a 10 minute incubation at room temperature, plates are read on a PerkinElmer Envision for fluorescent polarization (Ex485 nm/Em530 nm). The activity of the beta-secretase enzyme is detected by changes in the fluorescence polarization that occur when the substrate is cleaved by the enzyme.

BACE2 enzyme = BACE2 enzyme (Homo sapiens (Human), UniProt Q9Y5Z0); test: BACE2 Cell-free Assay (fluorescence polarization, synthetic substrate); assay type: biochemical; details: single determination
Experimental: This assay measures the inhibition of the BACE2 enzyme as it cleaves a non-native peptide. A synthetic substrate that can be cleaved by BACE2 having N-terminal biotin and made fluorescent by the covalent attachment of Oregon Green at the Cys residue is used to assay BACE2 activity in the presence or absence of the inhibitory compounds. The substrate is Biotin-[…]-C(Oregon green)-KK-OH. The BACE2 enzyme is available from Enzo Life Sciences (Cat # BML-SE550). Compounds are incubated in a ½ log dose response curve from a top concentration of 100 μM with BACE2 enzyme and the biotinylated fluorescent peptide in 384-well black plates (Thermo Scientific #4318). BACE2 is at a final concentration of 2.5 nM with a final concentration of peptide substrate of 150 nM in a reaction volume of 30 μL assay buffer (100 mM Sodium Acetate, pH 4.5 (brought to pH with acetic acid), and 0.001% Tween-20). Plates are covered and incubated for 3 hours at 37° C. The reaction is stopped with the addition of 30 μL of 1.5 μM Streptavidin (Pierce, #21125). After a 10 minute incubation at room temperature, plates are read on a PerkinElmer Envision for fluorescent polarization (Ex485 nm/Em530 nm). The activity of the beta-secretase enzyme is detected by changes in the fluorescence polarization that occur when the substrate is cleaved by the enzyme.

BACE1 enzyme, sequence (P56817 46-457): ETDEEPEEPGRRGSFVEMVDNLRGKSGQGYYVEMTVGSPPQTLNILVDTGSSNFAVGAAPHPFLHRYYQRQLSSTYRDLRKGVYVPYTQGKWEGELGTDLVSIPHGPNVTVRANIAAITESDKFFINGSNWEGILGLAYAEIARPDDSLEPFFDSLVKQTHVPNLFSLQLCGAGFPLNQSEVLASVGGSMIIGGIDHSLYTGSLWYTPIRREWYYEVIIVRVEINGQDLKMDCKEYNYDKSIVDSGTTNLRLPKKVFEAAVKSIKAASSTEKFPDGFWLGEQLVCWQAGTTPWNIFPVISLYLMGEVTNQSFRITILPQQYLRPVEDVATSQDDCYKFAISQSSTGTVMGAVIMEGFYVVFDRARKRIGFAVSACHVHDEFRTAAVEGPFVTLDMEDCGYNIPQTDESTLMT
BACE2 enzyme, sequence (Q9Y5Z0 63-518): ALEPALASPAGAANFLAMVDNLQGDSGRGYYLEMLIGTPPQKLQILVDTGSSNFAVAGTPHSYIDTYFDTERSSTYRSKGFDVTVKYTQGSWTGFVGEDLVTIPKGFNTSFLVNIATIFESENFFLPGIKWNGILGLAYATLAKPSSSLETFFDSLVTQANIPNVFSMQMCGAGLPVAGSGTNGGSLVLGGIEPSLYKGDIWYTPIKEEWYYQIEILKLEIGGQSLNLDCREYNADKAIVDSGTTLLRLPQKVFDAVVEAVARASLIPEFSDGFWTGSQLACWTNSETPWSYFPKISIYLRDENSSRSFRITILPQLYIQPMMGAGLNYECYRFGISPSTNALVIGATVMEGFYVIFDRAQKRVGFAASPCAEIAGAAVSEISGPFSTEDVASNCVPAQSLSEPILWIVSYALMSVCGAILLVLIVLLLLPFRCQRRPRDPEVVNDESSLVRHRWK

Cn1ccc([C@H]2C[C@H]3CSC(N)=N[C@@]3(c3ccc(F)cc3F)CO2)n1 [Example 2, (4aR,6R,8aS)-8a-(2,4-Difluorophenyl)-6-(1-methyl-1H-pyrazol-3-yl)-4,4-a,5,6,8,8a-hexahydropyrano[3,4-][1,3]thiazin-2-amine]
IC50 [1]: 0.017 µM | IC50 (BACE1 enzyme): 0.183 µM | IC50 (BACE2 enzyme): 4.74 µM
